Measurements published in publication PMC3273346, “BPR1J-097, a novel FLT3 kinase inhibitor, exerts potent inhibitory activity against AML” (British Journal of Cancer, 2011).
“Also recorded” adds a separate entry of the source.

Tests used:
[1] = tested on: K562 cells; assay: Cellular proliferation assay (MTS), K562; format: cell-based; details: Homo sapiens, CML-Bcr-Abl FLT3-negative, 72 h, mean±s.d. of three experiments
Protocol: (§1) MOLM-13 cells were purchased from the Deutsche Sammlung von Microorganismen und Zellkulturen GmbH (Braunschweig, Germany). RS4;11, MV4-11, U937, and K562 cell lines were obtained from the American Type Culture Collection (ATCC, Manassas, VA, USA). […] HEK293T- and FLT3-transfected HEK293T cells were cultured in DMEM (Invitrogen) medium with 10% FBS.
(§2) Proliferation assays were performed by seeding 10 000 cells per well in a 96-well culture plate. […] Cell viability was quantitated using the MTS method (Promega) according to the manufacturer's recommended protocol. The results were determined by measuring absorbance at 490 nm using a plate reader (Victor2; Perkin-Elmer).

[2] = tested on: MV4-11 cells; assay: Cellular proliferation assay (MTS), MV4-11; format: cell-based; details: Homo sapiens, AML-FLT3-ITD (homozygous), 72 h, mean±s.d. of three experiments
Protocol: as §1, §2

[3] = tested on: MOLM-13 xenograft tumours; design: method as in Shankar et al, 2007; details: ref Shankar et al, 2007; cited from earlier work
[4] = tested on: RS4;11 cells; assay: Cellular proliferation assay (MTS), RS4;11; format: cell-based; details: Homo sapiens, RS4-11, 72 h, read-out: Proliferation GI50, RS4;11
Protocol: as §1, §2

[5] = tested on: FLT3-WT; design: method as in Shankar et al (2007); details: previously reported; ref Shankar et al (2007); read-out: IC50 for inhibition of FLT3-WT; cited from earlier work
[6] = tested on: MOLM-13 cells; assay: Cellular proliferation assay (MTS), MOLM-13; format: cell-based; details: Homo sapiens, AML-FLT3-ITD (heterozygous), 72 h, mean±s.d. of three experiments
Protocol: as §1, §2

[7] = tested on: U937 cells; assay: Cellular proliferation assay (MTS), U937; format: cell-based; details: Homo sapiens, U-937, AML-FLT3-negative, 72 h, mean±s.d. of three experiments
Protocol: as §1, §2

Cc1ccc(F)c(NC(=O)Nc2ccc(-c3cccc4[nH]nc(N)c34)cc2)c1 [ABT-869]
GI50 [1]: > 20000 nM
GI50 [2]: 82 ± 17 nM
Effect on MOLM-13 xenograft tumours [3]: unable to shrink the MOLM-13 xenograft tumours; also recorded: not able to produce regressions of tumours
GI50 [4]: 9200 ± 2700 nM
IC50 [5]: 4 nM
GI50 [6]: 38 ± 14 nM
GI50 [7]: > 18000 nM
